Assay results taken from paper PMC10384936, “Identification and Biological Characterization of the Pyrazolo[3,4-d]pyrimidine Derivative SI388 Active as Src Inhibitor” (Pharmaceuticals, 2023).

How the values were obtained:
[1] = target: T1, Src (Homo sapiens, UniProt P12931); assay: Src enzymatic assay (ADP-Glo kinase assay); format: biochemical; conditions: for Ki: mean of at least three experiments, 100 μM ATP
T1 construct: purchased Merck-Millipore
Procedure: (§1) Src, Fyn, and Abl were purchased from Merck-Millipore. Reactions were performed according to the manufacturer’s instructions with minor modifications. All substrates were used at least at twice the concentration of apparent Km. In detail: Src reactions were performed using 500 μM Src-peptide (KVEKIGEGTYGVVYK), 100 μM ATP, and 0.00087% NP-40; Fyn reactions were performed using 360 μM Src-peptide (KVEKIGEGTYGVVYK), 200 μM ATP, and 0.0026% NP-40; Abl reactions were performed using 50 μM abltide (EAIYAAPFAKKK), 30 μM ATP, and 0.00087% NP-40. All reactions were performed using 10–50 ng of enzyme and 10% DMSO in 10 μL of kinase buffer (8 mM MOPS-NaOH pH7.0, 0.2 mM EDTA, 10 mM MgAc) at 30 °C for 10 min.
(§2) To avoid peptide adsorbing to the plastic surface, protein low-binding tubes were used. ADP-Glo kinase assay (Promega) was then used to detect kinase activity according to the manufacturer’s instructions with minor modifications. In detail, reactions were transferred to white 384 well-plates and stopped by adding 10 µL of ADP-Glo reagent (Promega) for 50 min at room temperature. A total of 20 μL of detection reagent (Promega) was then added for 30 min and the reaction read using a GloMax Discover microplate reader (Promega). Data were plotted using GraphPad Prism 5.0. IC50 values were obtained according to Equation (1):v = V/{1 + (I/IC50)} (1) where v is the measured reaction velocity, V is the apparent maximal velocity in the absence of inhibitor, I is the inhibitor concentration, and IC50 is the 50% inhibitory dose. Compounds tested were assumed to act as fully ATP-competitive inhibitors. Therefore, Ki values were calculated according to Equation (2):Ki = IC50/(1+ […]) (2) where Ki is the affinity of the inhibitor to the enzyme, S is the ATP concentration, and Km is the affinity of ATP calculated according to the Michaelis–Menten equation.

[2] = target: T2, Abl (Homo sapiens, UniProt P00519); assay: Abl enzymatic assay (ADP-Glo kinase assay); format: biochemical
T2 construct: purchased Merck-Millipore
Procedure: as §1, §2

[3] = target: T3, Fyn (Homo sapiens, UniProt P06241); assay: Fyn enzymatic assay (ADP-Glo kinase assay); format: biochemical; conditions: for Ki: mean of at least three experiments, 200 μM ATP
T3 construct: purchased Merck-Millipore
Procedure: as §1, §2

T2 sequence (P00519 whole entry, species assumed): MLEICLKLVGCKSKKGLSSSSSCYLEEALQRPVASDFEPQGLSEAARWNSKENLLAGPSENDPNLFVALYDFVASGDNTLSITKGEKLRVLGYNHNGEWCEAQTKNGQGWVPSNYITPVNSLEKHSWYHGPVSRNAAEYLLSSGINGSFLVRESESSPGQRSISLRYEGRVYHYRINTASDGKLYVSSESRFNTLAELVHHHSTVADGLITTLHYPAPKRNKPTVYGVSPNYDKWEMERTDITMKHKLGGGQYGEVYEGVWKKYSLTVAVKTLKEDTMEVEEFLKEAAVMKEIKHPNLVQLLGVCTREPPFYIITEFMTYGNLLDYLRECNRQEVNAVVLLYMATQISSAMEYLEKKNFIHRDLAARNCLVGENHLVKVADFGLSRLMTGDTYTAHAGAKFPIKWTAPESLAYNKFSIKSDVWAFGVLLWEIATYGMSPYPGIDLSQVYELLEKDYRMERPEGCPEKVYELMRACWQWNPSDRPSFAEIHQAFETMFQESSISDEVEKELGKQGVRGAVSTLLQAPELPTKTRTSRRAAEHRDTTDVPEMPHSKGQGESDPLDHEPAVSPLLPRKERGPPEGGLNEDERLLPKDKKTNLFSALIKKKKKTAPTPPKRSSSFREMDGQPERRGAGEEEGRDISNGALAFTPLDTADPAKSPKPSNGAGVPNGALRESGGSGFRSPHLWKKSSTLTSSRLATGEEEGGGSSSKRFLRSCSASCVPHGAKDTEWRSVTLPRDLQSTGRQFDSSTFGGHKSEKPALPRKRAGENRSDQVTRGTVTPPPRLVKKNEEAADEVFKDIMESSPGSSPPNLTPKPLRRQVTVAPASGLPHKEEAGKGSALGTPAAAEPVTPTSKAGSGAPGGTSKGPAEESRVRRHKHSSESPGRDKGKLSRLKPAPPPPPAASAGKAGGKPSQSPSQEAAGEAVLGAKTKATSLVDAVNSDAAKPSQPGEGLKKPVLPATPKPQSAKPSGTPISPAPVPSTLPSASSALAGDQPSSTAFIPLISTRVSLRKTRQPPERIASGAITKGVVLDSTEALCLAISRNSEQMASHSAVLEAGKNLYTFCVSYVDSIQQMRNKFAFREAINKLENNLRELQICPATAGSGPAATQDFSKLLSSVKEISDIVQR
T3 sequence (P06241 whole entry, species assumed): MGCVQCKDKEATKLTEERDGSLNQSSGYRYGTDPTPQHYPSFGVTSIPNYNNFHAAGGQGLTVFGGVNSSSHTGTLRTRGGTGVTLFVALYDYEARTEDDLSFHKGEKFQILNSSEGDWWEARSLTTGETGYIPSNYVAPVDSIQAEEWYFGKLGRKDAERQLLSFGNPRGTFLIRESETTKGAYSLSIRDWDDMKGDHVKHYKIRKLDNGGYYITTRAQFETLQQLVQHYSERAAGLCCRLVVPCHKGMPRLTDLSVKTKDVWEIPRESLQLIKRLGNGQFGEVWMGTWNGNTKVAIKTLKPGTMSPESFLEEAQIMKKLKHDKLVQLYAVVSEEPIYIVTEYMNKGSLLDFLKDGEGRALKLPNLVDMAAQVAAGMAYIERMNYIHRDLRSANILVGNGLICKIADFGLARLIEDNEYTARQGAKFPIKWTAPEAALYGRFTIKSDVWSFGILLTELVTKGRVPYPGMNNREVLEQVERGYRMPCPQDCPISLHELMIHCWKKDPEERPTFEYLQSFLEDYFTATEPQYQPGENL
T1 sequence (P12931 whole entry, species assumed): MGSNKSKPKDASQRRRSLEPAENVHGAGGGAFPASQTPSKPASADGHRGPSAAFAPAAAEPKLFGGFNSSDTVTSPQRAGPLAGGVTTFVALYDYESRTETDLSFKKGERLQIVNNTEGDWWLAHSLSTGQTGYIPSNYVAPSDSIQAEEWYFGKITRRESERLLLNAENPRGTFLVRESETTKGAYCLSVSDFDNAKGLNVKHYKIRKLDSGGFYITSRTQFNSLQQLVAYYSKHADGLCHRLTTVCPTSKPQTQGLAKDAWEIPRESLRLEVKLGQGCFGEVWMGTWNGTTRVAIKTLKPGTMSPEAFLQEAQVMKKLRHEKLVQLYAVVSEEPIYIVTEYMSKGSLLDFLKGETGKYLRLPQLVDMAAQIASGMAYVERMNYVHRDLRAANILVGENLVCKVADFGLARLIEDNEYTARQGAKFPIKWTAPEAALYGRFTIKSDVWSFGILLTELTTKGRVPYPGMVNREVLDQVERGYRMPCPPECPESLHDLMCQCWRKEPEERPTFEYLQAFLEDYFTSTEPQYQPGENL

SMILES | Activity towards Src in cell-free assay (in words) [1] | inhibition at 1 µM [1] | Activity towards Bcr-Abl in cell-free assay (in words) [2] | inhibition at 10 µM [2] | melting point | inhibition at 10 µM [1] | inhibition at 1 µM [3] | inhibition at 10 µM [3] | inhibition at 1 µM [2] | inhibition at 100 µM [1] | inhibition at 100 µM [3] | Ki [3] | Ki [1]
CSc1nc(Nc2ccc(Cl)cc2)c2cnn(CC(Cl)c3ccccc3)c2n1 (centres unmarked) [2b, 1-(2-Chloro-2-phenylethyl)-N-(4-chlorophenyl)-6-(methylthio)-1H-pyrazolo[3,4-d]pyrimidin-4-amine] | inactive | 24% | inactive | 23% | – | – | – | – | – | – | – | – | –
CCSc1nc(Nc2ccccc2)c2cnn(CC(Cl)c3ccccc3)c2n1 (centres unmarked) [2c, 1-(2-Chloro-2-phenylethyl)-6-(ethylthio)-N-phenyl-1H-pyrazolo[3,4-d]pyrimidin-4-amine] | – | 16% | – | 35% | 128 to 131 °C | 27% | 33% | 64% | 18% | – | – | – | –
CC(C)Sc1nc(Nc2cccc(Cl)c2)c2cnn(CC(Cl)c3ccccc3)c2n1 (centres unmarked) [2d, 1-(2-Chloro-2-phenylethyl)-N-(3-chlorophenyl)-6-(isopropylthio)-1H-pyrazolo[3,4-d]pyrimidin-4-amine] | – | – | – | 24% | – | 34% | – | 8% | – | 99.5% | 26% | – | –
Clc1ccccc1Nc1nc(SCCN2CCOCC2)nc2c1cnn2CC(Cl)c1ccccc1 (centres unmarked) [2e, 1-(2-Chloro-2-phenylethyl)-N-(2-chlorophenyl)-6-((2-morpholinoethyl)thio)-1H-pyrazolo[3,4-d]pyrimidin-4-amine] | – | – | – | 26.3% | 117 to 118 °C | – | – | – | – | – | – | – | –
Cl.Oc1cc(Nc2nc(SCCN3CCOCC3)nc3c2cnn3CC(Cl)c2ccccc2)ccc1F (centres unmarked) [2f, 5-({1-(2-Chloro-2-phenylethyl)-6-[(2-morpholinoethyl)thio]-1H-pyrazolo[3,4-d]pyrimidin-4-yl)amino)-2-fluorophenol hydrochloride] | – | – | – | 67% | 238 to 239 °C | 79% | – | – | 3% | – | – | – | –
Oc1cc(Nc2nc(SCCN3CCOCC3)nc3c2cnn3CC(Cl)c2ccccc2)c(F)cc1F (centres unmarked) [2g, 5-((1-(2-Chloro-2-phenylethyl)-6-((2-morpholinoethyl)thio)-1H-pyrazolo[3,4-d]pyrimidin-4-yl)amino)-2,4-difluorophenol] | – | 43.3% | – | 83% | 146 to 149 °C | 93.6% | – | – | 33.5% | – | – | – | –
CCc1nc(Nc2ccccc2)c2cnn(CC(Cl)c3ccccc3)c2n1 (centres unmarked) [2h, 1-(2-Chloro-2-phenylethyl)-6-ethyl-N-phenyl-1H-pyrazolo[3,4-d]pyrimidin-4-amine] | – | – | – | – | 174 to 176 °C | 12% | – | 57% | 34% | 98.3% | 82% | 10.3 ± 3.13 µM | –
Clc1cccc(Nc2nc(C3CCCC3)nc3c2cnn3CC(Cl)c2ccccc2)c1 (centres unmarked) [2i, 1-(2-Chloro-2-phenylethyl)-N-(3-chlorophenyl)-6-cyclopentyl-1H-pyrazolo[3,4-d]pyrimidin-4-amine] | – | – | – | – | 189 to 190 °C | 56% | – | 15% | – | 98.8% | 19% | – | –
ClC(Cn1ncc2c(Nc3ccccc3)nc(C3CCCCC3)nc21)c1ccccc1 (centres unmarked) [2j, 1-(2-Chloro-2-phenylethyl)-6-cyclohexyl-N-phenyl-1H-pyrazolo[3,4-d]pyrimidin-4-amine] | – | – | – | – | 134 to 136 °C | 5% | – | 13% | 39% | 95.3% | 38% | – | –
FC(F)(F)c1nc(Nc2ccccc2)c2cnn(CC(Cl)c3ccccc3)c2n1 (centres unmarked) [2k, 1-(2-Chloro-2-phenylethyl)-N-phenyl-6-(trifluoromethyl)-1H-pyrazolo[3,4-d]pyrimidin-4-amine] | – | – | – | 39% | 139 to 141 °C | 50.3% | – | 47% | – | 99.2% | 66% | 3.79 ± 1.01 µM | –
Fc1cccc(Nc2nc(C(F)(F)F)nc3c2cnn3CC(Cl)c2ccccc2)c1 (centres unmarked) [2l, 1-(2-Chloro-2-phenylethyl)-N-(3-fluorophenyl)-6-(trifluoromethyl)-1H-pyrazolo[3,4-d]pyrimidin-4-amine] | – | – | – | – | 164 to 166 °C | – | 19% | 10% | 40% | – | – | – | –
FC(F)(F)c1nc(Nc2cccc(Cl)c2)c2cnn(CC(Cl)c3ccccc3)c2n1 (centres unmarked) [2m, N-(3-Chlorophenyl)-1-(2-chloro-2-phenylethyl)-6-trifluoromethyl-1H-pyrazolo[3,4-d]pyrimidin-4-amine] | – | – | – | 18% | 88 to 90 °C | 67% | 2.5% | 20% | 15% | – | – | – | –
ClC(Cn1ncc2c(Nc3ccccc3)nc(-c3ccccc3)nc21)c1ccccc1 (centres unmarked) [2n, 1-(2-Chloro-2-phenylethyl)-N,6-diphenyl-1H-pyrazolo[3,4-d]pyrimidin-4-amine] | – | 11% | – | 18% | 130 to 140 °C (dec.) | 13% | 16% | 23% | 5% | – | – | – | –
Clc1cccc(Nc2nc(-c3ccccc3)nc3c2cnn3CC(Cl)c2ccccc2)c1 (centres unmarked) [2o, 1-(2-Chloro-2-phenylethyl)-N-(3-chlorophenyl)-6-phenyl-1H-pyrazolo[3,4-d]pyrimidin-4-amine] | – | – | – | – | 82 to 84 °C | – | – | 8% | – | – | – | – | –
CSc1nc(Nc2ccccc2)c2cnn(CC(Cl)c3ccc(F)cc3)c2n1 (centres unmarked) [2p, 1-(2-Chloro-2-(4-fluorophenyl)ethyl)-6-(methylthio)-N-phenyl-1H-pyrazolo[3,4-d]pyrimidin-4-amine] | – | 14% | – | 12% | 227 to 230 °C | 55% | 15% | 60% | – | – | – | 2.68 ± 0.37 µM | 14.4 ± 4.4 µM
Cc1nc(Nc2ccccc2)c2cnn(CC(Cl)c3ccc(Cl)cc3)c2n1 (centres unmarked) [2q, 1-(2-Chloro-2-(4-chlorophenyl)ethyl)-6-methyl-N-phenyl-1H-pyrazolo[3,4-d]pyrimidin-4-amine] | – | 29% | – | 25% | 202 to 203 °C | 48% | 24% | 78% | 20% | – | – | 2.07 ± 1.1 µM | 16.5 ± 4 µM
CCc1nc(Nc2ccccc2)c2cnn(CC(Cl)c3ccc(Cl)cc3)c2n1 (centres unmarked) [2r, 1-(2-Chloro-2-(4-chlorophenyl)ethyl)-6-ethyl-N-phenyl-1H-pyrazolo[3,4-d]pyrimidin-4-amine] | – | – | – | – | 193 to 195 °C | 7.5% | 48% | 75% | – | – | – | 1.74 ± 0.71 µM | –
CCCc1nc(Nc2ccccc2)c2cnn(CC(Cl)c3ccc(Cl)cc3)c2n1 (centres unmarked) [2s, 1-(2-Chloro-2-(4-chlorophenyl)ethyl)-N-phenyl-6-propyl-1H-pyrazolo[3,4-d]pyrimidin-4-amine] | – | – | – | – | 154 to 156 °C | – | – | – | – | – | – | 10.2 ± 2.11 µM | –
